Here are results for 2 compounds from PMC11747586, “Synthesis and Investigation of Peptide–Drug Conjugates Comprising Camptothecin and a Human Protein‐Derived Cell‐Penetrating Peptide” (Chemical Biology & Drug Design, 2025).

Where two headings read alike, the source gives them in different places. Residues, ends and D or L forms follow the SMILES beside them.

Data set [1] is described as follows: Cytotoxicity (resazurin) against cultured HaCaT noncancerous cells. As to the method:
(§1) Cell death was measured using resazurin, with 0.1% (v/v) Triton X‐100 as a control for 100% cell death. Data points are expressed as mean ± SD for at least two biological replicates. Dose response curves were fitted using [inhibitor] versus response with variable slope, Graphpad Prism v10. […] RBC lysis was determined by measuring released hemoglobin, with 0.1% (v/v) Triton X‐100 as a control for 100% cell lysis. Melittin was included as a membranolytic control. Data points are expressed as mean ± SD for two technical replicates. Dose response curves were fitted using [inhibitor] versus response with variable slope, Graphpad Prism v10. […] CC50 values are expressed as mean (SEM). […]
(§2) HaCaT cells were grown in DMEM medium and HT144 cells were grown in RPMI medium supplemented with 2 mM L-glutamine and 10 mM sodium pyruvate. Media were supplemented with 10% (v/v) fetal bovine serum, 100 units/mL of penicillin and […] of streptomycin. Flasks of cultured cells were maintained in a humidified incubator (37 °C, 5% CO2) and passaged every 2–3 days to maintain cultures between 20–90% confluence. Cell line identity was verified by comparing […]
(§3) STR profiles of the cell lines against database entries from the DSMZ-German collection of microorganisms and cell cultures, GmBH https://celldive.dsmz.de/str/browse.
(§4) Toxicity to the HT144 and HaCaT cell lines was tested following peptide treatment by measuring the metabolism of resazurin into fluorescent resorufin. The assays were performed with 5000 cells/well (96-well plate) in serum free media. Cells were incubated with serially diluted peptides, PDCs or drugs for 72 h or 24 h (37 °C, 5% CO2). PBS and 0.1% (v/v) Triton X-100 were included as controls for 0% and 100% toxicity. Resazurin was added at 0.02% (w/v) final concentration 2 h prior to the assay end point. Fluorescence (λex = 560 nm, λem = 585 nm) was measured using a Tecan infinite M1000Pro multiplate reader. Percentage cytotoxicity was calculated relative to 0% and 100% controls.
(§5) Dose-response curves were fitted and CC50 values were determined using [inhibitor] vs response with four parameters with the top constrained to 100% (GraphPad Prism version 10.0.2). Data was collected as three biological replicates, with experiments conducted on different days.
(§6) Red blood cell (RBC) lysis
(§7) Human RBCs and serum were obtained from healthy volunteers via the Red Cross Lifeblood, Brisbane, Australia. RBCs were washed three times with PBS and stored in culture medium (RPMI
Background: The colour change of resazurin is a common sign of viable cells or microbes.

The test system of a further data set is HT144 (melanoma) cells. In words: cells. The conditions noted are these: 72 h, concentration range 16 nM—2 μM. The protocol: (§8) Cell death was measured using resazurin, with 0.1% (v/v) Triton X‐100 as a control for 100% cell death. Data points are expressed as mean ± SD for at least two biological replicates. Dose response curves were fitted using [inhibitor] versus response with variable slope, Graphpad Prism v10. […] RBC lysis was determined by measuring released hemoglobin, with 0.1% (v/v) Triton X‐100 as a control for 100% cell lysis. Melittin was included as a membranolytic control. Data points are expressed as mean ± SD for two technical replicates. Dose response curves were fitted using [inhibitor] versus response with variable slope, Graphpad Prism v10. […] CC50 values are expressed as mean (SEM).
(§9) Cell death was measured using resazurin, with 0.1% (v/v) Triton X-100 as a control for 100% cell death. Data points are expressed as mean ± SD for at least two biological replicates. CC50 values are expressed as mean (SEM). Note: CPT-dipeptide-PDIP was not included in this study. c[A]PDIP is a desulfurized variant of cPDIP 2 (see Table S1) to prevent the presence of free thiol during assays. […]
as §2, §3
(§10) Toxicity to the HT144 and HaCaT cell lines was tested following peptide treatment by measuring the metabolism of resazurin into fluorescent resorufin. The assays were performed with 5000 cells/well (96-well plate) in serum free media. Cells were incubated with serially diluted peptides, PDCs or […]

A short description of the next data set: cells. As to the method: as §8, §9, §2, §3, §10
Data set [2] can be described thus: Parallel artificial membrane permeability assay (PAMPA). Type of data set: in vitro ADME. The note with it: for Papp at 4 h, 4 μM: PAMPA. As to the method:
FIGURE 4 (A) Membrane permeability and cellular uptake of PDCs, scaffold peptides, and CPT. Compounds were added to PAMPA wells (4 μM) and incubated for 4 h. Supernatant from apical and basolateral sides of the membrane were collected and analyzed using LC–MS. The amount in the combined soluble fractions was compared to the starting amount to determine % recovery, and the apparent permeability (Papp) was calculated as before (Sevin et al. [2013]). Data is expressed as mean ± SD from a single experiment with three technical replicates. (B) Internalization/cell membrane association of PDCs 12–14 and PDIP with HT144 cells. Cells were treated with PDIP or PDCs (4 μM) for 1 h, washed to remove extracellular compound, then extracted with 75% (v/v) MeCN in mQH2O (containing 1.75% (v/v) TFA), to recover soluble peptide or PDC from precipitated cell proteins. The relative amount of internalized peptide or PDC was determined by integrating area under the curve (AUC) for the [M + 6H]^6+ m/z peak (for the intact mass) using time of flight–mass spectrometry (see Figure S2). […] Data is expressed as mean ± SD from a single experiment with three technical replicates for each treatment and control and was analyzed with ANOVA (Tukey multiple comparisons; **p < 0.01, *p < 0.05). (C) Detection of intracellular CPT following 6 h treatment of HT144 cells with CPT and PDCs 12 and 14. […] Data is expressed as mean ± SD from a single experiment with three technical replicates for each treatment and was analyzed with ANOVA (Fisher multiple paired comparisons; **p < 0.01, *p < 0.05). TEXT PRINTED IN THE PICTURE: (A) PDIP: % recovered (soluble fractions): 94 | (A) 12: % recovered (soluble fractions): 58 | (A) 14: % recovered (soluble fractions): 33 | (A) 15: % recovered (soluble fractions): 40 | (A) c[A] PDIP: % recovered (soluble fractions): 34 | (A) CPT: % recovered (soluble fractions): 92 […]
For the first assay, the PDCs (12–15), scaffold peptides and CPT (4 μM) were added to the apical side of PAMPA monolayers and incubated for 4 h. […] PDIP, CPT, and PDCs 12 and 14 had high permeability (Papp ≥ 2 × 10^−6 cm/s), highlighting that these PDCs maintain membrane permeability with the CPT cargo attached. […] Reliable permeability data were not obtained for PDC 13 because of poor recovery of the PDC from soluble fractions, and degradation during the 4 h PAMPA experiment. […] Instability of the carbonate linkage within CPT conjugates containing a dipeptide linker has been previously reported (Walker et al. [2002]), highlighting the potential incompatibility of this drug–linker combination for CPT PDCs. Considering the observed degradation of 13 in the cell‐free assay, it is also possible that extracellular degradation occurred during the cytotoxicity assays.
Parallel artificial membrane permeability assay (PAMPA)
PAMPA was performed according to the manufacturer instructions for the BD Gentest pre-coated PAMPA plate system (BD Biosciences), as previously described.16 Briefly, peptides and PDCs (4 μM in PBS) were added to the apical side of PAMPA wells and incubated for 4 h at 37 °C, 5% CO2 with 95% humidity. Soluble fractions were recovered from the apical and basolateral sides, and compound concentration was quantified using a Shimadzu LCMS-2020 instrument with a Phenomenex 5 µm C18 / 300 Å / 150 x 2 mm LC column. Data was collected from three technical replicates for each compound. The % recovery was determined from (combined from apical and basolateral fractions) relative to the starting concentration:
Recovery rate : R (%) = (C஺ ×V஺ +C஻ ×V஻ )× 100 where CA and CB are the apical and basolateral concentrations (µM), VA and VB are the apical and basolateral volumes (mL), and C0 is the initial concentration (µM).
The apparent permeability coefficient (Papp) was calculated using the following equations17 and where A is the membrane surface area (cm2): […]

For data set [3], the system named is HaCaT (noncancerous) cells. In words: Cytotoxicity (resazurin) against cultured HaCaT noncancerous cells. The conditions noted are these: read-out: CC50 HaCaT; 72 h incubation, resazurin; mean (SEM). As to the method:
as §1, §2, §3, §4, §5, §6, §7

As for `CC[C@H](C)[C@@H]1NC(=O)[C@H](CCCCN)NC(=O)[C@H](CCCCN)NC(=O)[C@H](Cc2ccc(O)cc2)NC(=O)[C@H](CC(C)C)NC(=O)[C@@H]2CCCN2C(=O)CNC(=O)CNC(=O)[C@@H](NC(=O)CN)CSSC[C@@H](C(=O)N[C@@H](CCC(=O)O)C(=O)N[C@@H](CO)C(N)=O)NC(=O)[C@H](CC(C)C)NC(=O)[C@H](CCCCN)NC(=O)[C@H](CCCCN)NC(=O)[C@H]([C@@H](C)CC)NC(=O)[C@H]([C@@H](C)CC)NC(=O)[C@H](CCCCN)NC(=O)[C@H](CCCCN)NC(=O)[C@H](Cc2ccc(O)cc2)NC(=O)[C@H](CC(C)C)NC(=O)[C@@H]2CCCN2C(=O)[C@H](C)NC(=O)CNC(=O)CNC(=O)[C@H](Cn2cc(CCCC(=O)O[C@]3(CC)C(=O)OCc4c3cc3n(c4=O)Cc4cc5ccccc5nc4-3)nn2)NC(=O)CNC(=O)CNC(=O)[C@H](CO)NC(=O)[C@H](CCC(=O)O)NC(=O)[C@H](CC(C)C)NC(=O)[C@H](CC(C)C)NC(=O)[C@H](CCCCN)NC(=O)[C@H](CCCCN)NC(=O)[C@H]([C@@H](C)CC)NC1=O` [PDC 12], the CC50 (in data set [1]; in “cells”) was more than 2 µM in each case. The “cytotoxic activity against HT144” value in the data set on HT144 (melanoma) cells is given as “no activity”. Besides, in data set [2] (4 μM, 4 h, combined apical and basolateral fractions), the “% recovered (soluble fractions)” value is reported as 58%. Also, the Papp – broadly, a coefficient for how fast a substance crosses the barrier – at 4 h, 4 μM in data set [2] (4 μM, 4 h, apical to basolateral, read-out: apparent permeability (Papp)) was not below 2 ×10⁻⁶ cm/s.
Regarding `CC[C@H](C)[C@@H]1NC(=O)[C@H](CCCCN)NC(=O)[C@H](CCCCN)NC(=O)[C@H](Cc2ccc(O)cc2)NC(=O)[C@H](CC(C)C)NC(=O)[C@@H]2CCCN2C(=O)[C@H](C)NC(=O)CNC(=O)CNC(=O)[C@H](CO)NC(=O)CNC(=O)CNC(=O)[C@H](CO)NC(=O)[C@H](CCC(=O)O)NC(=O)[C@H](CC(C)C)NC(=O)[C@H](CC(C)C)NC(=O)[C@H](CCCCN)NC(=O)[C@H](CCCCN)NC(=O)[C@H]([C@@H](C)CC)NC(=O)[C@H]([C@@H](C)CC)NC(=O)[C@H](CCCCN)NC(=O)[C@H](CCCCN)NC(=O)[C@H](Cc2ccc(O)cc2)NC(=O)[C@H](CC(C)C)NC(=O)[C@@H]2CCCN2C(=O)[C@H](C)NC(=O)CNC(=O)CNC(=O)[C@H](C)NC(=O)CNC(=O)CNC(=O)[C@H](CO)NC(=O)[C@H](CCC(=O)O)NC(=O)[C@H](CC(C)C)NC(=O)[C@H](CC(C)C)NC(=O)[C@H](CCCCN)NC(=O)[C@H](CCCCN)NC(=O)[C@H]([C@@H](C)CC)NC1=O` [c[A]PDIP] (cyclo(AGGAPLYKKIIKKLLESGGSGGAPLYKKIIKKLLESGG)), the CC50 (as a rule, the concentration that lowers cell viability or growth by half) in data set [3] is not below 32 µM; in data set [1], approximately 32 µM; in the data set “cells” it was 9.35 µM. The Papp at 4 h, 4 μM in data set [2] is approximately 0.4 ×10⁻⁶ cm/s.
